In US20090124587A1, “METHODS FOR TREATING CANCER USING 17alpha-HYDROXYLASE/C17,20-LYASE INHIBITORS” (priority 2007, published 2009):

How the values were obtained:
Format in all cases: in vivo, human
[1] = Food effect PK study, two single oral 1000 mg doses of abiraterone acetate, fed (high fat) vs fasted
Protocol: (§1) To measure the amount of abiraterone and abiraterone acetate in the samples, these compounds were extracted from 100 uL human plasma using solid phase extraction (SPE) with cation mixed-mode polymer cartridges. Extracts were evaporated to dryness before reconstitution and analysis. Chromatography was carried out using a Luna™ C5 column (5 μm, 50 mm×2.1 mm id) with a gradient mobile phase consisting of 10 mM ammonium acetate and 2% propan-2-ol in acetonitrile. The flow rate was 0.2 mL/min and the run time 10.5 minutes. Abiraterone and abiraterone acetate were ionized using the electrospray interface in positive ion mode. Detection of analytes was via tandem mass spectrometry (MS/MS) in the multiple reaction monitoring (MRM) mode.
PK modeling was conducted using a non-compartmental model, extra vascular input for plasma with WinNonLin Software®. Pharmacokinetic parameters estimated in the model include:
Based on the above results, the PK parameters for a single dose of 1000 mg/day of abiraterone acetate were further studied in the 3 subjects who were administered the 1000 mg/day dose and in 3 additional subjects. Two single oral doses (1000 mg) of abiraterone acetate were administered separately, one concomitantly with food of high fat content and one in fasting state. The first single dose was administered on day −9 with PK blood samples being taken at 1, 2, 4, 6, 8, 24, 48 and 72 hours post dose. The second single dose was administered on day −3 with PK blood samples being taken at 1, 2, 4, 6, 8, 24 and 48 hours post dose for analysis.

[2] = tested on: alkaline phosphatase (ALP); assay: Blood plasma levels of alkaline phosphatase; conditions: some subjects
Protocol: (§2) FIGS. 15A-15H show the blood plasma level of certain steroids over time in subjects that were administered 250 mg/day, 500 mg/day and 750 mg/day of abiraterone acetate.

tumor lesions = assay: Effect on tumor mass size, CT scans (RECIST), bone disease, nodes and metastases
Protocol: (§3) The effect of abiraterone acetate on the blood levels of prostate-specific antigen (PSA) was evaluated. Two groups of subjects were involved in the study. The first group (“Group 1”) was comprised of the 18 subjects discussed above as well as 12 additional subjects that were administered 1000 mg/day of abiraterone acetate. All 30 of the subjects in Group 1 were castrated and hormone refractory; however, none of the 30 had been treated with chemotherapy, i.e., they were chemotherapy-naïve. The second group (“Group 2”) was comprised of 13 subjects, all of whom were castrated and hormone refractory. Also, these 13 subjects had been administered docetaxel and were chemotherapy refractory. The subjects in Group 2 were administered 1000 mg/day of abiraterone acetate. The subjects in both groups were administered abiraterone acetate until they progressed.
The effect of the administration of abiraterone acetate on tumor mass size was observed.

[3] = tested on: androgenic steroids, such as testosterone; assay: Blood plasma levels of androgenic steroids; conditions: some subjects
Protocol: as §2

[4] = Pharmacokinetic study of abiraterone in hormone refractory prostate cancer patients, oral doses 250-2000 mg/day, fasted
Protocol: A group of 15 subjects was divided into five groups. Members of each group were orally administered doses of 250 mg/day, 500 mg/day, 750 mg/day, 1000 mg/day or 2000 mg/day once a day. Before administration the subjects had fasted. PK blood samples were measured at 1, 2, 4, 6, 8, 24, and 72 hours post dose.
as §1
PK modeling was conducted using a non-compartmental model, extra vascular input for plasma with WinNonLin Software®. Pharmacokinetic parameters estimated in the model include: […]

[5] = tested on: circulating tumor cells (CTC); assay: Number of circulating tumor cells after administration; conditions: certain patients after administration
[6] = Analgesic use in Group 1 and Group 2 subjects; conditions: subjects of both groups
[7] = Safety, dose limiting toxicity in phase I/II study; conditions: all subjects tested, Group 1 (250-2000 mg/day) and Group 2 (1000 mg/day)
Protocol: An open label phase I/II study was carried out to evaluate the safety, efficacy and recommended dose of abiraterone acetate in prostate cancer patients. Pharmacokinetics (PK), pharmacodynamics and antitumor efficacy were also studied.
as §3

[8] = tested on: prostate-specific antigen (PSA); assay: Effect of abiraterone acetate on blood levels of prostate-specific antigen (PSA)
Protocol: as §3
60% of the Group 1 subjects (18 of 30) experienced a decline of PSA levels of greater than 50% for more than 10 days. A third of these subjects experienced PSA declines of greater than 90% for more than 10 days. FIGS. 9A-9D show the effect of the administration of abiraterone acetate on PSA levels for certain of the Group 1 subjects that were administered 250 mg/day, 500 mg/day, 750 mg/day and 1000 mg/day of abiraterone acetate. With respect to the Group 2 subjects, 7 of the 13 subjects experienced a decline in PSA levels of about 50% for more than 10 days.

CC(=O)O[C@H]1CC[C@@]2(C)C(=CCC3C2CC[C@]2(C)C(c4cccnc4)=CCC32)C1 (stereo partly shown) [abiraterone acetate, 3-acetoxy-17-(3-pyridyl)androsta-5,16-diene]
AUC at 2000 mg relative to 1000 mg (doubling) ([1]; extended cohort, fasted group): no longer
AUC at 2000 mg relative to 1000 mg ([1]; extended cohort, fed group): approximate doubling of AUC
abiraterone acetate detected in vivo ([1]; following an oral dose of abiraterone acetate at 1000 mg): no abiraterone acetate was detected
mean drug exposure (AUC) at 2000 mg relative to 1000 mg ([1]; previously, in both dosing regimes (fed and fasted)): approximately double
blood plasma levels of alkaline phosphatase (ALP) [2]: declines
partial radiological responses as measured by CT scans (RECIST) (tumor lesions; 20 evaluable Group 1 subjects with measurable tumor lesions): 11 subjects
subjects with ongoing stable bone disease (tumor lesions; Group 1): Seven
subjects with regressing bone disease (tumor lesions; Group 1): three
pelvic nodes (tumor lesions; subject administered 250 mg/day (FIG. 10)): regression of pelvic nodes
mediastinal nodes (tumor lesions; subject administered 500 mg/day (FIG. 13)): regression of mediastinal nodes
pelvic nodes (tumor lesions; subject administered 750 mg/day (FIG. 11)): regression of pelvic nodes
pulmonary metastases (tumor lesions; subject administered 750 mg/day (FIG. 14)): regression of pulmonary metastases
pelvic nodes (tumor lesions; subject administered 1000 mg/day (FIG. 12)): regression of pelvic nodes
blood plasma levels of androgenic steroids, such as testosterone [3]: declines
drug levels at 1000 mg compared with 500 mg ([4]; 1000 mg vs 500 mg Abiraterone acetate): higher
drug levels measured at 1000 mg compared with 750 mg fasting ([4]; 1000 mg vs 750 mg in a fasting state): not higher
number of circulating tumor cells (CTC) [5]: declines
analgesic use [6]: decrease in analgesic use was observed
dose limiting toxicity (DLTs) [7]: No dose limiting toxicity (DLTs) were observed
subjects with decline of PSA levels of greater than 50% for more than 10 days ([8]; Group 1: 30 castrated, hormone refractory, chemotherapy-naïve subjects (18 of 30)): 60%
subjects with PSA declines of greater than 90% for more than 10 days ([8]; Group 1, fraction of these subjects): A third
subjects with decline in PSA levels of about 50% for more than 10 days ([8]; Group 2: 13 castrated, hormone refractory, docetaxel-treated chemotherapy refractory subjects, 1000 mg/day): 7 of the 13
